Laboratory results taken from ChEMBL document CHEMBL4251670, “Cyclopiamines C and D: Epoxide Spiroindolinone Alkaloids from Penicillium sp. CML 3020” (J Nat Prod, 2018).

What was measured:
[1] = tested on: Aspergillus fumigatus; assay: Antifungal activity against Aspergillus fumigatus ATCC 46645 measured after overnight incubation; assay type: functional
[2] = tested on: Staphylococcus aureus; assay: Antibacterial activity against methicillin-resistant Staphylococcus aureus MB5393 measured after overnight incubation; assay type: functional
[3] = tested on: MDA-MB-231; assay: Cytotoxicity against human MDA-MB-231 cells after 72 hrs by CellTiter-Glo luminescent assay; assay type: functional, cell-based; conditions: MDA-MB-231, 72 h
[4] = Cytotoxicity against human NCH421K cells after 72 hrs by CellTiter-Glo luminescent assay; assay type: functional, cell-based
[5] = tested on: Klebsiella pneumoniae; assay: Antibacterial activity against Klebsiella pneumoniae ATCC 700603 measured after overnight incubation; assay type: functional
[6] = tested on: Candida albicans; assay: Antifungal activity against Candida albicans MY1055 measured after overnight incubation; assay type: functional
[7] = tested on: MCF7; assay: Cytotoxicity against human MCF7 cells after 72 hrs by CellTiter-Glo luminescent assay; assay type: functional, cell-based; conditions: MCF7, 72 h
[8] = tested on: SW480; assay: Cytotoxicity against human SW480 cells after 72 hrs by CellTiter-Glo luminescent assay; assay type: functional, cell-based; conditions: SW480, 72 h
[9] = tested on: Acinetobacter baumannii; assay: Antibacterial activity against Acinetobacter baumannii MB5973 measured after overnight incubation; assay type: functional
[10] = Cytotoxicity against human MEC1 cells after 72 hrs by CellTiter-Glo luminescent assay; assay type: functional, cell-based; conditions: MEC1, 72 h
[11] = tested on: Pseudomonas aeruginosa; assay: Antibacterial activity against Pseudomonas aeruginosa MB5919 measured after overnight incubation; assay type: functional
[12] = tested on: Escherichia coli; assay: Antibacterial activity against Escherichia coli MB2884 measured after overnight incubation; assay type: functional
[13] = tested on: EVSA-T; assay: Cytotoxicity against human EVSA-T cells after 72 hrs by CellTiter-Glo luminescent assay; assay type: functional, cell-based

Row | SMILES | MIC [1] [µg/mL] | MIC [2] [µg/mL] | IC50 [3] [µM] | IC50 [4] [µM] | MIC [5] [µg/mL] | MIC [6] [µg/mL] | IC50 [7] [µM] | IC50 [8] [µM] | MIC [9] [µg/mL] | IC50 [10] [µM] | MIC [11] [µg/mL] | MIC [12] [µg/mL] | IC50 [13] [µM]
1 | CC1(C)[C@@H](O)C(=O)c2c(O)ccc3c2N1C(=O)[C@@]31C[C@]2([N+](=O)[O-])CN3C[C@@H]4O[C@@H]4[C@@H]3C[C@H]2C1(C)C | > 64 | > 64 | > 180 | > 180 | > 64 | > 64 | > 180 | > 180 | > 64 | > 180 | > 64 | > 64 | > 180
2 | COc1ccc2c3c1C(=O)[C@H](O)C(C)(C)N3C(=O)[C@@]21C[C@]2([N+](=O)[O-])CN3C[C@@H]4O[C@@H]4[C@@H]3C[C@H]2C1(C)C | > 64 | > 64 | > 180 | > 180 | > 64 | > 64 | > 180 | > 180 | > 64 | > 180 | > 64 | > 64 | > 180
